Experimental data from US20230348475A1, “IMIDAZOPYRIDAZINE AND IMIDAZOPYRAZINE COMPOUNDS AS INHIBITORS OF CDK7” (THE TRANSLATIONAL GENOMICS RESEARCH INSTITUTE, priority 2020, published 2023).
Where a name gives a salt, the structure may show the parent alone.

Target: CDK7/CycH/MAT1 (Homo sapiens, UniProt P50613)
Assay: Kinase Glo (ADP-Glo) biochemical assay, CDK7
Details: CDK7/CycH/MAT1 40 ng, ATP 1 μM, 60 minutes at RT, luminescence
Experimental: Materials: • Assay Buffer: 50 mM HEPES, 3 mM MgCl2, 3 mM MnCl2, 1 mM DTT, 3 μM Na3VO4, pH 7.5 • Substrate RB • CTF Peptide (ProQinase #: 0040-0000-6) • Enzymes • CDK7/CycH/MAT1 (ProQinase #: 0366-0360-4) • ADP-Glo™ Assay (Promega #: V9101) • ATP: 10 mM • ADP-Glo™ Reagent • Kinase Detection Reagent • 384-well white assay plates
A ten point serial dilution of compound was prepared at 5X concentration in assay buffer with the final assay concentrations starting at 30 μM, 10 μM, 3 μM, 1 μM . . . 0 μM. Enzyme, substrate, and ATP were used at 40 ng, 200 ng (or 400 ng)* and 1 μM, respectively. The assay plate was set up by mixing the components in a total reaction volume of 10 μL per well. The plate was centrifuged gently for 10 seconds and incubated at room temperature (RT) for 60 minutes in the dark. The ADP-Glo Reagent and kinase detection reagent were added and incubated as recommended. The reaction was quantified by measuring luminescence on the Perkin Elmer Envision plate reader.

CDK7/CycH/MAT1, sequence (P50613 whole entry): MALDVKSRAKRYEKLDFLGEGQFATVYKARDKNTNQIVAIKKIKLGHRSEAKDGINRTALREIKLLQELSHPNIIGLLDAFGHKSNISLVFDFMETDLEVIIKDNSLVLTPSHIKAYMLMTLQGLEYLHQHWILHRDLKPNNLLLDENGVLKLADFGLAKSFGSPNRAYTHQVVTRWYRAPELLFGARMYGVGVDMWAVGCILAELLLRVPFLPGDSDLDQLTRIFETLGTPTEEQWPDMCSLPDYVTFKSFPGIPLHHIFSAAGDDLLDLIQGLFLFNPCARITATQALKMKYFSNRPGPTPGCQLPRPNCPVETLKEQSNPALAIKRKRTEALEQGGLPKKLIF
CDK7/CycH/MAT1, sequence (P51946 whole entry partner): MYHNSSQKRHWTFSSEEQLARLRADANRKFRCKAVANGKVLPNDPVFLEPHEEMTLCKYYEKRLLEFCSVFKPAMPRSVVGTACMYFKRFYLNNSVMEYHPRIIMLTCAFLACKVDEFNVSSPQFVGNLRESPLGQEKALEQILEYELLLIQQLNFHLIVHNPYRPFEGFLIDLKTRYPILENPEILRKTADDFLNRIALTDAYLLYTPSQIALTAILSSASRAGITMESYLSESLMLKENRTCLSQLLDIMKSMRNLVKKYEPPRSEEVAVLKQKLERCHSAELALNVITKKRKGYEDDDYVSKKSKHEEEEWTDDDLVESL
CDK7/CycH/MAT1, sequence (P51948 whole entry partner): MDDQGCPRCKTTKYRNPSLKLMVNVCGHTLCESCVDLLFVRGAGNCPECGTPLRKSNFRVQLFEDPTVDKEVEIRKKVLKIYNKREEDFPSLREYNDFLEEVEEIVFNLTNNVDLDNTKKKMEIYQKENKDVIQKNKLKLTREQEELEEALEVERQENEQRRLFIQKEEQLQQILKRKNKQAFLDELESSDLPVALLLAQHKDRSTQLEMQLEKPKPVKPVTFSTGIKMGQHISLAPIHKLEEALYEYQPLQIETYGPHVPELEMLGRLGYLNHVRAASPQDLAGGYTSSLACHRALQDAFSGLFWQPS

`c1ccc(CNc2cc(O[C@@H]3CCCNC3)nn3c(C4CC4)cnc23)cc1` [Compound 13, (R)—N-benzyl-3-cyclopropyl-6-(piperidin-3-yloxy)imidazo[1,2-b]pyridazin-8-amine] and `c1ccc(CNc2cc(O[C@H]3CCNC3)nn3c(C4CC4)cnc23)cc1` [Compound 12, (S)—N-benzyl-3-cyclopropyl-6-(pyrrolidin-3-yloxy)imidazo[1,2-b]pyridazin-8-amine] fall in the same range of IC50: 100 to 1000 nM for the first, 100 to 1000 nM for the second.

`CC(C)c1cnc2c(NCc3ccccc3OC(F)(F)F)cc(OC[C@H]3CNCCO3)nn12` [Compound 47, (R)-3-isopropyl-6-(morpholin-2-ylmethoxy)-N-(2-(trifluoromethoxy)benzyl)imidazo[1,2-b]pyridazin-8-amine hydrochloride] and `CC(C)c1cnc2c(NCc3ccccc3OC(F)(F)F)cc(OC[C@@H]3CNCCO3)nn12` [Compound 49, (S)-3-isopropyl-6-(morpholin-2-ylmethoxy)-N-(2-(trifluoromethoxy)benzyl)imidazo[1,2-b]pyridazin-8-amine hydrochloride] fall in the same range of IC50: 100 to 1000 nM for the first, 100 to 1000 nM for the second.

`CN1CCC[C@@H](Oc2cc(NCc3ccccc3)c3ncc(C4CC4)n3n2)C1` [Compound 9, (R)—N-benzyl-3-cyclopropyl-6-((1-methylpiperidin-3-yl)oxy)imidazo[1,2-b]pyridazin-8-amine] and `CN1CCC[C@H](Oc2cc(NCc3ccccc3)c3ncc(C4CC4)n3n2)C1` [Compound 11, (S)—N-benzyl-3-cyclopropyl-6-((1-methylpiperidin-3-yl)oxy)imidazo[1,2-b]pyridazin-8-amine] fall in the same range of IC50: 100 to 1000 nM for the first, 100 to 1000 nM for the second.

`FC(F)(F)c1cnc2c(NCc3ccccc3)cc(SC3CCNCC3)nn12` [Compound 78, N-benzyl-6-(piperidin-4-ylthio)-3-(trifluoromethyl)imidazo[1,2-b]pyridazin-8-amine hydrochloride] and `CC(C)c1cnc2c(NCc3cccc(C(F)(F)F)c3)cc(SC3CCNCC3)nn12` [Compound 55, 3-isopropyl-6-(piperidin-4-ylthio)-N-(3-(trifluoromethyl)benzyl)imidazo[1,2-b]pyridazin-8-amine hydrochloride] cannot be ordered by IC50: less than 100 nM for the first, less than 100 nM for the second.

`CC(C)c1cnc2c(Nc3cccc(F)c3)cc(OC3CCNCC3)nn12` [Compound 50, N-(3-fluorophenyl)-3-isopropyl-6-(piperidin-4-yloxy)imidazo[1,2-b]pyridazin-8-amine hydrochloride] and `CC(C)c1cnc2c(N[C@@H](C)c3ccccc3)cc(OC3CCNCC3)nn12` [Compound 27, hydrochloride] fall in the same range of IC50: 100 to 1000 nM for the first, 100 to 1000 nM for the second.

`CC(C)c1cnc2c(Nc3cccc(C(F)(F)F)c3)cc(SC3CCCNC3)nn12` (centres unmarked) [Compound 57, 3-isopropyl-6-(piperidin-3-ylthio)-N-(3-(trifluoromethyl)phenyl)imidazo[1,2-b]pyridazin-8-amine hydrochloride] and `CC(C)c1cnc2c(Nc3cccc(OC(F)(F)F)c3)cc(SC3CCCNC3)nn12` (centres unmarked) [Compound 58, 3-isopropyl-6-(piperidin-3-ylthio)-N-(3-(trifluoromethoxy)phenyl)imidazo[1,2-b]pyridazin-8-amine hydrochloride] fall in the same range of IC50: 100 to 1000 nM for the first, 100 to 1000 nM for the second.

First: COc1cc(F)ccc1CNc1cc(SC2CCNCC2)nn2c(C(C)C)cnc12 [Compound 72, N-(4-fluoro-2-methoxybenzyl)-3-isopropyl-6-(piperidin-4-ylthio)imidazo[1,2-b]pyridazin-8-amine hydrochloride]
Second: COc1cc(F)ccc1CNc1cc(SC2CCCNC2)nn2c(C(C)C)cnc12 (centres unmarked) [Compound 79, N-(4-fluoro-2-methoxybenzyl)-3-isopropyl-6-(piperidin-3-ylthio)imidazo[1,2-b]pyridazin-8-amine formate]
The IC50 of the first is lower: less than 100 nM for the first, 100 to 1000 nM for the second.

`CC(C)c1cnc2c(NCc3ccccc3OC(F)(F)F)cc(SC3CCNCC3(F)F)nn12` (centres unmarked) [Compound 76, 6-((3,3-difluoropiperidin-4-yl)thio)-3-)isopropyl-N-(2-(trifluoromethoxy)benzyl)imidazo[1,2-b]pyridazin-8-amine hydrochloride] and `COc1ccccc1CNc1cc(SC2CCNCC2(F)F)nn2c(C(C)C)cnc12` (centres unmarked) [Compound 75, 6-((3,3-difluoropiperidin-4-yl)thio)-3-isopropyl-N-(2-methoxybenzyl)imidazo[1,2-b]pyridazin-8-amine hydrochloride] fall in the same range of IC50: 100 to 1000 nM for the first, 100 to 1000 nM for the second.

`CC(C)c1cnc2c(NCc3ccccc3OC(F)(F)F)cc(SC3CCNCC3F)nn12` (centres unmarked) [Compound 74, 6-((3-fluoropiperidin-4-yl)thio)-3-isopropyl-N-(2-(trifluoromethoxy)benzyl)imidazo[1,2-b]pyridazin-8-amine hydrochloride] and `CC(C)c1cnc2c(NCc3ccccc3OC(F)(F)F)cc(OC3CCNCC3F)nn12` (centres unmarked) [Compound 69, 6-((3-fluoropiperidin-4-yl)oxy)-3-isopropyl-N-(2-(trifluoromethoxy)benzyl)imidazo[1,2-b]pyridazin-8-amine hydrochloride] fall in the same range of IC50: 100 to 1000 nM for the first, 100 to 1000 nM for the second.

`CC(C)c1cnc2c(N[C@@H](C)c3ccccc3)cc(SC3CCCNC3)nn12` (stereo partly drawn) [Compound 28, 3-isopropyl-N-((S)-1-phenylethyl)-6-(piperidin-3-ylthio) imidazo [1,2-b]pyridazin-8-amine hydrochloride] and `CC(C)c1cnc2c(NCc3ccccc3)cc(S[C@H]3CCCNC3)nn12` (single isomer, unassigned) [Compound 42, hydrochloride] cannot be ordered by IC50: less than 100 nM for the first, less than 100 nM for the second.

`CN1CCC(Oc2cc(NCc3ccccc3)c3ncc(C4CC4)n3n2)CC1` [Compound 15, N-benzyl-3-cyclopropyl-6-((1-methylpiperidin-4-yl)oxy)imidazo [1,2-b] pyridazin-8-amine] and `CN1CC[C@@H](Oc2cc(NCc3ccccc3)c3ncc(C4CC4)n3n2)C1` [Compound 10, (R)—N-benzyl-3-cyclopropyl-6-((1-methylpyrrolidin-3-yl)oxy)imidazo[1,2-b]pyridazin-8-amine] fall in the same range of IC50: 100 to 1000 nM for the first, 100 to 1000 nM for the second.

`c1ccc(CNc2cc(NCC3CC4(CCNCC4)O3)nn3c(C4CC4)cnc23)cc1` (centres unmarked) [Compound 17, N6-((1-oxa-7-azaspiro[3.5]nonan-2-yl)methyl)-N8-benzyl-3-cyclopropylimidazo[1,2-b]pyridazine-6,8-diamine] and `c1ccc(CNc2cc(OC3CCNCC3)nn3c(C4CC4)cnc23)cc1` [Compound 14, N-benzyl-3-cyclopropyl-6-(piperidin-4-yloxy)imidazo[1,2-b]pyridazin-8-amine] fall in the same range of IC50: 100 to 1000 nM for the first, 100 to 1000 nM for the second.

`CCOc1ccccc1CNc1cc(SC2CCNCC2)nn2c(C(C)C)cnc12` [Compound 65, N-(2-ethoxybenzyl)-3-isopropyl-6-(piperidin-4-ylthio)imidazo[1,2-b]pyridazin-8-amine hydrochloride] and `CC(C)Oc1ccccc1CNc1cc(SC2CCNCC2)nn2c(C(C)C)cnc12` [Compound 67, N-(2-isopropoxybenzyl)-3-isopropyl-6-(piperidin-4-ylthio)imidazo[1,2-b]pyridazin-8-amine hydrochloride] cannot be ordered by IC50: less than 100 nM for the first, less than 100 nM for the second.

`CN1CCC[C@H](Nc2cc(NCc3ccccc3)c3ncc(C4CC4)n3n2)C1` [Compound 16, (S)-N8-benzyl-3-cyclopropyl-N6-(1-methylpiperidin-3-yl)imidazo[1,2-b]pyridazine-6,8-diamine] and `COC(=O)[C@@H](N)CSc1cc(NCc2ccccc2)c2ncc(C3CC3)n2n1` [Compound 30, methyl S-(8-(benzylamino)-3-cyclopropylimidazo[1,2-b]pyridazin-6-yl)-L-cysteinate hydrochloride] fall in the same range of IC50: 100 to 1000 nM for the first, 100 to 1000 nM for the second.

Compared with `CC(C)c1cnc2c(NCc3ccccc3OC(F)(F)F)cc(OC3CCNCC3(F)F)nn12` (centres unmarked) [Compound 71, 6-((3,3-difluoropiperidin-4-yl)oxy)-3-isopropyl-N-(2-(trifluoromethoxy)benzyl)imidazo[1,2-b]pyridazin-8-amine hydrochloride], `CC(C)c1cnc2c(NCc3ccc(F)cc3C(F)(F)F)cc(SC3CCNCC3)nn12` [Compound 80, N-(4-fluoro-2-(trifluoromethyl)benzyl)-3-isopropyl-6-(piperidin-4-ylthio)imidazo[1,2-b]pyridazin-8-amine hydrochloride] is lower in IC50: greater than 1000 nM for the first, 100 to 1000 nM for the second.

First: CC(C)c1cnc2c(N[C@@H](C)c3ccccc3)cc(NC3CCNCC3)nn12 [Compound 29, (S)-3-isopropyl-N8-(1-phenylethyl)-N6-(piperidin-4-yl)imidazo[1,2-b]pyridazine-6,8-diamine hydrochloride]
Second: CC(C)c1cnc2c(NCc3ccccc3)cc(NC[C@H]3CCNC[C@@H]3O)nn12 [Compound I-3]
The IC50 of the first is higher: 100 to 1000 nM for the first, less than 100 nM for the second.

First: CC(C)c1cnc2c(Nc3ccccc3C(F)(F)F)cc(SC3CCCNC3)nn12 (centres unmarked) [Compound 61, 3-isopropyl-6-(piperidin-3-ylthio)-N-(2-(trifluoromethyl)phenyl) imidazo[1,2-b]pyridazin-8-amine hydrochloride]
Second: CC(C)c1cnc2c(NCc3c(F)cccc3F)cc(SC3CCNCC3)nn12 [Compound 52, N-(2,6-difluorobenzyl)-3-isopropyl-6-(piperidin-4-ylthio)imidazo[1,2-b]pyridazin-8-amine hydrochloride]
The IC50 of the first is higher: 100 to 1000 nM for the first, less than 100 nM for the second. The second is the more potent here.

Compound `c1ccc(CNc2nc(NC3CCNCC3)cn3c(C4CC4)cnc23)cc1` [Compound 31, N8-benzyl-3-cyclopropyl-N6-(piperidin-4-yl)imidazo[1,2-α]pyrazine-6,8-diamine hydrochloride] has an IC50 greater than 1000 nM.
